In publication PMC5813016 (Nature Communications, 2018):
Values joined by “and” are separate entries in the source; they are usually repeats but may differ in a detail not shown here. Identical values can stand only once. “Also recorded” adds a separate entry of the source. Values belong to the compound of their own block, whether it stands above or below them.

Key:
[1] = test system: rats with unilateral 6-OHDA lesions; experiment: Rat unilateral 6-OHDA lesion model, contralateral rotations; type: in vivo, Sprague-Dawley rat; conditions: for contralateral rotational behavior on repeated dosing: 6-OHDA lesioned rats, six doses every 12 h, A-77636 0.32 mg/kg s.c., PF-2334 10.78 mg/kg oral; for pairwise contrast of rotational speed, estimate: 6-OHDA rats
Description: Sprague-Dawley rats with 6-OHDA lesions were obtained from Taconic (Rensselaer, NY). For the lesion surgery rats (~175 g) were anesthetized with isoflurane and given desipramine to protect noradrenergic neurons (10 mg/kg). The medial forebrain was targeted using AP:−4.3 mm; ML:−1.2 mm; DV:8.3 mm using a 30 G cannula. […] The cannula was left in place post-infusion for 5 min. To assess the extent of the lesion animals were given an apomorphine (0.05 mg/kg S.C.) challenge 21 day after the lesion surgery. Matched sham lesioned animals from the same source received exactly the same procedures except saline was infused into the brain. Only animals with more than 180 contralateral rotations over 30 min or more than 30 rotations in multiple 5 min intervals were used for the study. Experiments began 12 weeks after lesion.
Rats with sham (n = 20) and unilateral 6-OHDA lesions (n = 17) were obtained and four weeks after lesion used for the study. […] Animals followed a normal light cycle (6:00 AM lights on and 6:00 PM lights off). Animals were provided with food and water ad libitum in the chambers. Activity was monitored with infrared ceiling cameras (Y-cam, London, UK) and rotational behavior was quantified by automated movie analysis via validated custom software. Animals were acclimated and recorded for 2 h to the test chambers prior to the first dose.
Rotational behavior was detected using custom software written in Python language, version 2.7. OpenCV library, version 2.10 was used for video analyses[73],[74]. R software, version 3.1.0, was used for statistical analyses. Rotational behavior is described as the average number of rotations per minute (RPM) during the 6 h period immediately following each dose. To quantify changes within each treatment group as well as differences between treatments over time we used a longitudinal mixed model two-way ANOVA[75] with time, treatment, and their interaction as fixed factors and animal as a random factor. Least-squares means for specified factors were estimated using lsmeans library. Post-hoc comparisons to reference time point were adjusted for multiple hypothesis testing via Dunnett′s method. All statistical tests were performed two-tailed at a 5% level of significance.

human D1R K81R mutant = experiment: cAMP assay, D1R mutant K81R; conditions: relative to wild-type D1R; each table line is one experiment (Experiment # 1-6)
human D1R S107A mutant = experiment: cAMP assay, D1R mutant S107A; conditions: relative to wild-type D1R; each table line is one experiment (Experiment # 1-6)
human D1R N334A mutant = experiment: cAMP assay, D1R mutant N334A; conditions: relative to wild-type D1R; each table line is one experiment (Experiment # 1-6)
human D1R S198A mutant = experiment: cAMP assay, D1R mutant S198A; conditions: relative to wild-type D1R; each table line is one experiment (Experiment # 1-6)
human D1R S199A mutant = experiment: cAMP assay, D1R mutant S199A; conditions: relative to wild-type D1R; each table line is one experiment (Experiment # 1-6)
human D1R Y194F mutant = experiment: cAMP assay, D1R mutant Y194F; conditions: relative to wild-type D1R; each table line is one experiment (Experiment # 1-6)

SMILES: NC[C@@H]1O[C@H](C23CC4CC(CC(C4)C2)C3)Cc2c1ccc(O)c2O [A-77636, reference compound]
- contralateral rotational behavior on repeated dosing [1]: essentially zero contralateral rotational behavior

- fold shift of cAMP functional potency, K81R (EC50 mutant/ EC50 WT) (human D1R K81R mutant): 0.4
- fold shift of cAMP functional potency, S107A (EC50 mutant/ EC50 WT) (human D1R S107A mutant): 1.2
- fold shift of cAMP functional potency, N334A (EC50 mutant/ EC50 WT) (human D1R N334A mutant): 1.2
SMILES: Cc1cc(Oc2cccc(O)c2O)ccc1-c1c(C)ncnc1C [PF-1437]

SMILES: Cc1n[nH]c(=O)c(C)c1-c1ccc(Oc2nccc3occc23)cc1F [PF-2334]
- contralateral rotational behavior on repeated dosing [1]: significantly greater rotational behavior than A-77636 treated animals; also recorded: still displaying contralateral rotational behavior following the 6th dose
- pairwise contrast of rotational speed, estimate ([1]; PF-2334 10.78 mg/kg p.o. every 12 h, contrast (time range, hours) 24 - 36, least-squares means): 0.4016
- pairwise contrast of rotational speed, estimate ([1]; PF-2334, contrast (hours) 24 - 48): 0.3322
- pairwise contrast of rotational speed, estimate ([1]; PF-2334, contrast (hours) 24 - 60): 0.371
- pairwise contrast of rotational speed, estimate ([1]; PF-2334, contrast (hours) 24 - 72 (72 h = quinpirole dose)): 1.093
- pairwise contrast of rotational speed, estimate ([1]; PF-2334, contrast (hours) 36 - 48): -0.06943
- pairwise contrast of rotational speed, estimate ([1]; PF-2334, contrast (hours) 36 - 60): -0.03066
- pairwise contrast of rotational speed, estimate ([1]; PF-2334, contrast (hours) 36 - 72 (72 h = quinpirole dose)): 0.6914
- pairwise contrast of rotational speed, estimate ([1]; PF-2334, contrast (hours) 48 - 60): 0.03877
- pairwise contrast of rotational speed, estimate ([1]; PF-2334, contrast (hours) 48 - 72 (72 h = quinpirole dose)): 0.7609
- pairwise contrast of rotational speed, estimate ([1]; PF-2334, contrast (hours) 60 - 72 (72 h = quinpirole dose)): 0.7221

SMILES: Cc1cc(Oc2nccc3occc23)ccc1-c1c(C)ncc2nccn12 [PF-6142]
- fold shift of cAMP functional potency, K81R (EC50 mutant/ EC50 WT) (human D1R K81R mutant): 2.7
- fold shift of cAMP functional potency, S107A (EC50 mutant/ EC50 WT) (human D1R S107A mutant): 2.3
- fold shift of cAMP functional potency, S198A (EC50 mutant/ EC50 WT) (human D1R S198A mutant): 6.0 and 7.0 and 6.4 and 7.5
- fold shift of cAMP functional potency, S199A (EC50 mutant/ EC50 WT) (human D1R S199A mutant): 8.7 and 10.0
- fold shift of cAMP functional potency, N334A (EC50 mutant/ EC50 WT) (human D1R N334A mutant): 1.3

- fold shift of cAMP functional potency, Y194F (EC50 mutant/ EC50 WT) (human D1R Y194F mutant): 1.3
- fold shift of cAMP functional potency, S199A (EC50 mutant/ EC50 WT) (human D1R S199A mutant): 4.3
SMILES: Cc1cc(Oc2nccc3occc23)ccc1-c1c(C)ncnc1C [PF-8871]
